The values that follow come from the NIST ThermoML archive (doi:10.1016/j.fluid.2018.09.024).

Each structure is given as a SMILES string. Numbers after ± are expanded uncertainties.

The data set in a line: activity coefficient (dimensionless); of the first substance listed, at infinite dilution; xn = mol fraction of the nth substance listed. The conditions noted are these: 101.33 kPa, Liquid, Chromatography, x1 = 0.

Take `CCCOCCC` [dipropyl ether] + CCCCCCCCCCCC[N+](C)(C)CCOc1ccccc1.O=S(=O)([N-]S(=O)(=O)C(F)(F)F)C(F)(F)F: the activity coefficient reads like this: (318.15 K) 1.78 ± 0.12; (328.15 K) 1.85 ± 0.12; (338.15 K) 1.92 ± 0.13; (348.15 K) 1.99 ± 0.14; (358.15 K) 2.06 ± 0.14; (368.15 K) 2.13 ± 0.14.
Consider `Cc1ccc(C)cc1` [1,4-dimethylbenzene] + CCCCCCCCCCCC[N+](C)(C)CCOc1ccccc1.N#C[N-]C#N, for which the activity coefficient (328.15 K) was found to be 1.38 ± 0.09; the activity coefficient (338.15 K) is 1.44 ± 0.09; the activity coefficient (348.15 K) amounted to 1.5 ± 0.1; the activity coefficient (358.15 K) came out at 1.57 ± 0.1; the activity coefficient (368.15 K) is 1.63 ± 0.11; the activity coefficient (378.15 K) worked out at 1.69 ± 0.11.
As to `CC(C)=O` [acetone] + CCCCCCCCCCCC[N+](C)(C)CCOc1ccccc1.N#C[N-]C#N, the activity coefficient came out at 0.721 ± 0.048 (328.15 K); 0.745 ± 0.049 (338.15 K); 0.767 ± 0.05 (348.15 K); 0.791 ± 0.051 (358.15 K); 0.813 ± 0.053 (368.15 K); 0.834 ± 0.054 (378.15 K).
For `CCCC=O` [butanal] + CCCCCCCCCCCC[N+](C)(C)CCOc1ccccc1.N#C[N-]C#N, the activity coefficient reads like this: (328.15 K) 0.766 ± 0.05; (338.15 K) 0.779 ± 0.051; (348.15 K) 0.79 ± 0.051; (358.15 K) 0.803 ± 0.052; (368.15 K) 0.816 ± 0.053; (378.15 K) 0.828 ± 0.053.
`c1ccccc1` [benzene] + CCCCCCCCCCCC[N+](C)(C)CCOc1ccccc1.O=S(=O)([N-]S(=O)(=O)C(F)(F)F)C(F)(F)F: the activity coefficient is, setting by setting: (318.15 K) 0.569 ± 0.041; (328.15 K) 0.6 ± 0.042; (338.15 K) 0.629 ± 0.043; (348.15 K) 0.658 ± 0.045; (358.15 K) 0.687 ± 0.046; (368.15 K) 0.716 ± 0.048.
In the case of `CCC(C)(C)OC` [2-methoxy-2-methylbutane] + CCCCCCCCCCCC[N+](C)(C)CCOc1ccccc1.N#C[N-]C#N, the activity coefficient amounted to 2.49 ± 0.17 (328.15 K); 2.56 ± 0.17 (338.15 K); 2.63 ± 0.18 (348.15 K); 2.69 ± 0.18 (358.15 K); 2.75 ± 0.19 (368.15 K); 2.81 ± 0.19 (378.15 K).
On to `C=CCCCC` [hex-1-ene] + CCCCCCCCCCCC[N+](C)(C)CCOc1ccccc1.O=S(=O)([N-]S(=O)(=O)C(F)(F)F)C(F)(F)F, for which the activity coefficient by setting is: (318.15 K) 2.19 ± 0.15; (328.15 K) 2.24 ± 0.15; (338.15 K) 2.28 ± 0.16; (348.15 K) 2.32 ± 0.16; (358.15 K) 2.36 ± 0.16; (368.15 K) 2.41 ± 0.16.
`c1ccsc1` [thiophene] + CCCCCCCCCCCC[N+](C)(C)CCOc1ccccc1.N#C[N-]C#N: the activity coefficient worked out at 0.648 ± 0.044 (328.15 K); 0.674 ± 0.046 (338.15 K); 0.699 ± 0.047 (348.15 K); 0.724 ± 0.048 (358.15 K); 0.749 ± 0.049 (368.15 K); 0.773 ± 0.051 (378.15 K).
Turning to `C=CCCCCCCCC` [1-decene] + CCCCCCCCCCCC[N+](C)(C)CCOc1ccccc1.N#C[N-]C#N, the activity coefficient is, setting by setting: (328.15 K) 6.45 ± 0.44; (338.15 K) 6.67 ± 0.45; (348.15 K) 6.83 ± 0.47; (358.15 K) 6.99 ± 0.48; (368.15 K) 7.14 ± 0.49; (378.15 K) 7.22 ± 0.49.
In the case of `CCCCO` [butan-1-ol] + CCCCCCCCCCCC[N+](C)(C)CCOc1ccccc1.O=S(=O)([N-]S(=O)(=O)C(F)(F)F)C(F)(F)F, the activity coefficient amounted to 1.38 ± 0.09 (318.15 K); 1.32 ± 0.09 (328.15 K); 1.28 ± 0.08 (338.15 K); 1.23 ± 0.08 (348.15 K); 1.19 ± 0.08 (358.15 K); 1.15 ± 0.07 (368.15 K).
Regarding `C1COCCO1` [1,4-dioxane] + CCCCCCCCCCCC[N+](C)(C)CCOc1ccccc1.O=S(=O)([N-]S(=O)(=O)C(F)(F)F)C(F)(F)F, the activity coefficient came out at 0.45 ± 0.036 (318.15 K); 0.483 ± 0.037 (328.15 K); 0.517 ± 0.039 (338.15 K); 0.551 ± 0.04 (348.15 K); 0.584 ± 0.041 (358.15 K); 0.619 ± 0.043 (368.15 K).
With `CCC(C)(C)OC` [2-methoxy-2-methylbutane] + CCCCCCCCCCCC[N+](C)(C)CCOc1ccccc1.O=S(=O)([N-]S(=O)(=O)C(F)(F)F)C(F)(F)F, the activity coefficient reads like this: (318.15 K) 1.22 ± 0.08; (328.15 K) 1.29 ± 0.08; (338.15 K) 1.36 ± 0.09; (348.15 K) 1.43 ± 0.09; (358.15 K) 1.5 ± 0.1; (368.15 K) 1.56 ± 0.1.
`C=CCCCC` [hex-1-ene] + CCCCCCCCCCCC[N+](C)(C)CCOc1ccccc1.N#C[N-]C#N: the activity coefficient came to 3.59 ± 0.24 (328.15 K); 3.68 ± 0.25 (338.15 K); 3.76 ± 0.26 (348.15 K); 3.84 ± 0.26 (358.15 K); 3.9 ± 0.27 (368.15 K); 3.99 ± 0.27 (378.15 K).
On to `CCC(=O)OC` [methyl propanoate] + CCCCCCCCCCCC[N+](C)(C)CCOc1ccccc1.O=S(=O)([N-]S(=O)(=O)C(F)(F)F)C(F)(F)F, for which the activity coefficient was 0.498 ± 0.038 (318.15 K); 0.53 ± 0.039 (328.15 K); 0.566 ± 0.041 (338.15 K); 0.599 ± 0.042 (348.15 K); 0.633 ± 0.044 (358.15 K); 0.669 ± 0.045 (368.15 K).
In the case of `C#CCCCCCC` [1-octyne] + CCCCCCCCCCCC[N+](C)(C)CCOc1ccccc1.O=S(=O)([N-]S(=O)(=O)C(F)(F)F)C(F)(F)F, the activity coefficient runs as follows: (318.15 K) 1.69 ± 0.11; (328.15 K) 1.78 ± 0.12; (338.15 K) 1.86 ± 0.13; (348.15 K) 1.95 ± 0.13; (358.15 K) 2.03 ± 0.14; (368.15 K) 2.12 ± 0.14.
As to `c1ccncc1` [pyridine] + CCCCCCCCCCCC[N+](C)(C)CCOc1ccccc1.O=S(=O)([N-]S(=O)(=O)C(F)(F)F)C(F)(F)F, the activity coefficient is 0.278 ± 0.03 (318.15 K); 0.296 ± 0.031 (328.15 K); 0.313 ± 0.031 (338.15 K); 0.33 ± 0.032 (348.15 K); 0.346 ± 0.032 (358.15 K); 0.363 ± 0.033 (368.15 K).
Turning to `CCC(C)CC` [3-methylpentane] + CCCCCCCCCCCC[N+](C)(C)CCOc1ccccc1.O=S(=O)([N-]S(=O)(=O)C(F)(F)F)C(F)(F)F, the activity coefficient amounted to 2.74 ± 0.19 (318.15 K); 2.81 ± 0.19 (328.15 K); 2.88 ± 0.2 (338.15 K); 2.95 ± 0.2 (348.15 K); 3.01 ± 0.2 (358.15 K); 3.07 ± 0.21 (368.15 K).
On to `CCOC(C)(C)C` [2-ethoxy-2-methylpropane] + CCCCCCCCCCCC[N+](C)(C)CCOc1ccccc1.O=S(=O)([N-]S(=O)(=O)C(F)(F)F)C(F)(F)F, for which the activity coefficient was determined as 1.8 ± 0.12 (318.15 K); 1.87 ± 0.13 (328.15 K); 1.94 ± 0.13 (338.15 K); 2.01 ± 0.14 (348.15 K); 2.09 ± 0.14 (358.15 K); 2.16 ± 0.15 (368.15 K).
For `CCOC(C)=O` [ethyl acetate] + CCCCCCCCCCCC[N+](C)(C)CCOc1ccccc1.O=S(=O)([N-]S(=O)(=O)C(F)(F)F)C(F)(F)F, the activity coefficient by setting is: (318.15 K) 0.505 ± 0.038; (328.15 K) 0.533 ± 0.039; (338.15 K) 0.563 ± 0.04; (348.15 K) 0.592 ± 0.042; (358.15 K) 0.62 ± 0.043; (368.15 K) 0.648 ± 0.044.
On to `C=CCCC` [1-pentene] + CCCCCCCCCCCC[N+](C)(C)CCOc1ccccc1.O=S(=O)([N-]S(=O)(=O)C(F)(F)F)C(F)(F)F, for which the activity coefficient by setting is: (318.15 K) 1.83 ± 0.12; (328.15 K) 1.88 ± 0.13; (338.15 K) 1.93 ± 0.13; (348.15 K) 1.98 ± 0.13; (358.15 K) 2.03 ± 0.14; (368.15 K) 2.08 ± 0.14.
Turning to `C1CCCCC1` [cyclohexane] + CCCCCCCCCCCC[N+](C)(C)CCOc1ccccc1.O=S(=O)([N-]S(=O)(=O)C(F)(F)F)C(F)(F)F, the activity coefficient runs as follows: (318.15 K) 2.02 ± 0.14; (328.15 K) 2.05 ± 0.14; (338.15 K) 2.08 ± 0.14; (348.15 K) 2.11 ± 0.14; (358.15 K) 2.13 ± 0.14; (368.15 K) 2.16 ± 0.15.
In the case of `Cc1ccccc1` [toluene] + CCCCCCCCCCCC[N+](C)(C)CCOc1ccccc1.N#C[N-]C#N, the activity coefficient by setting is: (328.15 K) 1.05 ± 0.07; (338.15 K) 1.1 ± 0.07; (348.15 K) 1.15 ± 0.07; (358.15 K) 1.19 ± 0.08; (368.15 K) 1.24 ± 0.08; (378.15 K) 1.28 ± 0.08.
Regarding `CCC(C)(C)C` [2,2-dimethylbutane] + CCCCCCCCCCCC[N+](C)(C)CCOc1ccccc1.O=S(=O)([N-]S(=O)(=O)C(F)(F)F)C(F)(F)F, the activity coefficient (318.15 K) amounted to 2.82 ± 0.19; the activity coefficient (328.15 K) was 2.91 ± 0.2; the activity coefficient (338.15 K) amounted to 2.99 ± 0.2; the activity coefficient (348.15 K) is 3.07 ± 0.21; the activity coefficient (358.15 K) stood at 3.15 ± 0.21; the activity coefficient (368.15 K) came to 3.24 ± 0.22.
Regarding `C#CCCCC` [1-hexyne] + CCCCCCCCCCCC[N+](C)(C)CCOc1ccccc1.O=S(=O)([N-]S(=O)(=O)C(F)(F)F)C(F)(F)F, the activity coefficient stood at 1.26 ± 0.08 (318.15 K); 1.33 ± 0.09 (328.15 K); 1.39 ± 0.09 (338.15 K); 1.45 ± 0.1 (348.15 K); 1.51 ± 0.1 (358.15 K); 1.57 ± 0.1 (368.15 K).
